Measured values from US8211928B2, “Hepatitis C virus inhibitors” (Bristol-Myers Squibb Company, priority 2009, dated 2012).

tested on: HCV 1b genotype; test: HCV replicon assay, 1b genotype; type: cell-based; details: Hepatitis C virus; HCV 1b genotype replicon; activity ranges; read-out: 1b EC50 in Range
Experimental: An HCV Replion assay was utilized in the present disclosure, and was prepared, conducted and validated as described in commonly owned PCT/US2006/022197 and in O'Boyle et. al. Antimierob Agents Chemother. 2005 April; 49(4):1346-53. Assay methods incorporating luciferase reporters have also been used as described (Apath.com).
HCV-neo replicon cells and HCV replicon cells containing mutations in the NS5A region were used to test the currently described family of compounds. The compounds were determined to have more than 10-fold less inhibitory activity on cells containing mutations than wild-type cells. Thus, the compounds of the present disclosure can be effective in inhibiting the function of the HCV NS5A protein and are understood to be as effective in combinations as previously described in application PCT/US2006/022197 and commonly owned WO/04014852. Further, the compounds of the present disclosure can be effective against the HCV 1b genotype. It should also be understood that the compounds of the present disclosure can inhibit multiple genotypes of HCV. […] In one embodiment, compounds of the present disclosure are inhibitory versus 1a, 1b, 2a, 2b, 3a, 4a, and 5a genotypes. Activity ranges are as follows: A=>100 nM; B=1-100 nM; C=101-999 pM; and D=1-100 pM.

Q: Which EC50 does the source give for `COC(=O)N[C@@H](C)C(=O)N1CCC[C@H]1C(=O)Nc1n[nH]c2ccc(-c3ccc(-c4cnc([C@@H]5CCCN5C(=O)[C@H](C)NC(=O)OC)[nH]4)cc3)cc12` [Example 29] here?
A: > 100 nM

Q: With `COC(=O)N[C@@H](C)C(=O)N1CCC[C@H]1C(=O)Nc1noc2ccc(-c3ccc(-c4cnc([C@@H]5CCCN5C(=O)[C@H](C)NC(=O)OC)[nH]4)cc3)cc12` [Example 12] as the compound, how does the EC50 read?
A: 1 to 100 nM

Q: For `COC(=O)N[C@H](C(=O)N1CCC[C@H]1C(=O)Nc1n[nH]c2ccc(-c3ccc(-c4cnc([C@@H]5CCCN5C(=O)[C@@H](NC(=O)OC)[C@@H](C)OC)[nH]4)cc3)cc12)[C@@H](C)OC` [Example 33], which EC50 is on record?
A: > 100 nM

Q: With `COC(=O)N[C@H](C(=O)N1CCC[C@H]1C(=O)Nc1n[nH]c2cc(-c3ccc(-c4cnc([C@@H]5CCCN5C(=O)[C@@H](NC(=O)OC)[C@@H](C)OC)[nH]4)cc3)ccc12)[C@@H](C)OC` [Example 25] as the compound, how does the EC50 read?
A: 1 to 100 nM

Q: For `COC(=O)N[C@H](C(=O)N1CCC[C@H]1C(=O)Nc1n[nH]c2cc(-c3ccc(-c4cnc([C@@H]5CCCN5C(=O)[C@@H](NC(=O)OC)C(C)C)[nH]4)cc3)ccc12)C(C)C` [Example 24], which EC50 is on record?
A: 0.101 to 0.999 nM

Q: For `COC(=O)N[C@H](C(=O)N1CCC[C@H]1C(=O)Nc1noc2cc(-c3ccc(-c4cnc([C@@H]5CCCN5C(=O)[C@@H](NC(=O)OC)C(C)C)[nH]4)cc3)ccc12)C(C)C` [Example 5], which EC50 is on record?
A: 0.101 to 0.999 nM

Q: For `COC(=O)N[C@@H](C(=O)N1CCC[C@H]1C(=O)Nc1n[nH]c2ccc(-c3ccc(-c4cnc([C@@H]5CCCN5C(=O)[C@H](NC(=O)OC)c5ccccc5)[nH]4)cc3)cc12)c1ccccc1` [Example 34], which EC50 is on record?
A: 1 to 100 nM

Q: Which EC50 does the source give for `COC(=O)N[C@@H](C)C(=O)N1CCC[C@H]1C(=O)Nc1n[nH]c2cc(-c3ccc(-c4cnc([C@@H]5CCCN5C(=O)[C@H](C)NC(=O)OC)[nH]4)cc3)ccc12` [Example 22, (S)-1-((S)-2-Methoxycarbonylaminopropanoyl)-N-(6-(4-(2-((S)-1-((S)-2-methoxycarbonylaminopropanoyl)pyrrolidin-2-yl)-1H-imidazol-5-yl)phenyl)-1H-indazol-3-yl)pyrrolidine-2-carboxamide] here?
A: 1 to 100 nM

Q: How did the EC50 turn out when `COC(=O)N[C@H](C(=O)N1CCC[C@H]1C(=O)Nc1n[nH]c2ccc(-c3ccc(-c4cnc([C@@H]5CCCN5C(=O)[C@@H](NC(=O)OC)C(C)C)[nH]4)cc3)cc12)C(C)C` [Example 31] was run?
A: > 100 nM

Q: For `COCC[C@H](NC(=O)OC)C(=O)N1CCC[C@H]1C(=O)Nc1n[nH]c2ccc(-c3ccc(-c4cnc([C@@H]5CCCN5C(=O)[C@H](CCOC)NC(=O)OC)[nH]4)cc3)cc12` [Example 32], which EC50 is on record?
A: 1 to 100 nM

Q: With `COC(=O)N[C@H](C(=O)N1CCC[C@H]1C(=O)Nc1noc2ccc(-c3ccc(-c4cnc([C@@H]5CCCN5C(=O)[C@@H](NC(=O)OC)[C@@H](C)OC)[nH]4)cc3)cc12)[C@@H](C)OC` [Example 14] as the compound, how does the EC50 read?
A: 1 to 100 nM

Q: How did the EC50 turn out when `CCN(CC)[C@@H](C(=O)N1CCC[C@H]1C(=O)Nc1n[nH]c2cc(-c3ccc(-c4cnc([C@@H]5CCCN5C(=O)[C@@H](c5ccccc5)N(CC)CC)[nH]4)cc3)ccc12)c1ccccc1` [Example 23] was run?
A: 0.001 to 0.1 nM

Q: Which EC50 does the source give for `CN(C)[C@@H](C(=O)N1CCC[C@H]1C(=O)Nc1n[nH]c2ccc(-c3ccc(-c4cnc([C@@H]5CCCN5C(=O)[C@@H](c5ccccc5)N(C)C)[nH]4)cc3)cc12)c1ccccc1` [Example 30] here?
A: 1 to 100 nM

Q: For `CN(C)[C@@H](C(=O)N1CCC[C@H]1C(=O)Nc1noc2ccc(-c3ccc(-c4cnc([C@@H]5CCCN5C(=O)[C@@H](c5ccccc5)N(C)C)[nH]4)cc3)cc12)c1ccccc1` [Example 17], which EC50 is on record?
A: 1 to 100 nM

Q: With `COCC[C@H](NC(=O)OC)C(=O)N1CCC[C@H]1C(=O)Nc1noc2ccc(-c3ccc(-c4cnc([C@@H]5CCCN5C(=O)[C@H](CCOC)NC(=O)OC)[nH]4)cc3)cc12` [Example 15] as the compound, how does the EC50 read?
A: 1 to 100 nM

Q: How did the EC50 turn out when `CN(C)[C@@H](C(=O)N1CCC[C@H]1C(=O)Nc1noc2cc(-c3ccc(-c4cnc([C@@H]5CCCN5C(=O)[C@@H](c5ccccc5)N(C)C)[nH]4)cc3)ccc12)c1ccccc1` [Example 6] was run?
A: 0.101 to 0.999 nM

Q: With `COC(=O)N[C@H](C(=O)N1CCC[C@H]1C(=O)Nc1noc2cc(-c3ccc(-c4cnc([C@@H]5CCCN5C(=O)[C@@H](NC(=O)OC)[C@@H](C)OC)[nH]4)cc3)ccc12)[C@@H](C)OC` [Example 8] as the compound, how does the EC50 read?
A: 0.101 to 0.999 nM

Q: With `COC(=O)N[C@H](C(=O)N1CCC[C@H]1C(=O)Nc1noc2ccc(-c3ccc(-c4cnc([C@@H]5CCCN5C(=O)[C@@H](NC(=O)OC)C(C)C)[nH]4)cc3)cc12)C(C)C` [Example 13] as the compound, how does the EC50 read?
A: 1 to 100 nM

Q: For `COC(=O)N[C@@H](C(=O)N1CCC[C@H]1C(=O)Nc1noc2ccc(-c3ccc(-c4cnc([C@@H]5CCCN5C(=O)[C@H](NC(=O)OC)C(C)C)[nH]4)cc3)cc12)C(C)C` [Example 16], which EC50 is on record?
A: > 100 nM

Q: Which EC50 does the source give for `COC(=O)N[C@@H](C(=O)N1CCC[C@H]1C(=O)Nc1noc2cc(-c3ccc(-c4cnc([C@@H]5CCCN5C(=O)[C@H](NC(=O)OC)C(C)C)[nH]4)cc3)ccc12)C(C)C` [Example 7] here?
A: > 100 nM

same assay, conditions: Hepatitis C virus; HCV 1b genotype replicon; read-out: 1b EC50

Q: How did the EC50 turn out when `COC(=O)N[C@H](C(=O)N1CCC[C@H]1C(=O)Nc1n[nH]c2ccc(-c3ccc(-c4cnc([C@@H]5CCCN5C(=O)[C@@H](NC(=O)OC)[C@@H](C)OC)[nH]4)cc3)cc12)[C@@H](C)OC` [Example 33] was run?
A: 1200 nM

Q: For `CCN(CC)[C@@H](C(=O)N1CCC[C@H]1C(=O)Nc1n[nH]c2cc(-c3ccc(-c4cnc([C@@H]5CCCN5C(=O)[C@@H](c5ccccc5)N(CC)CC)[nH]4)cc3)ccc12)c1ccccc1` [Example 23], which EC50 is on record?
A: 0.043 nM

Q: How did the EC50 turn out when `COC(=O)N[C@H](C(=O)N1CCC[C@H]1C(=O)Nc1noc2ccc(-c3ccc(-c4cnc([C@@H]5CCCN5C(=O)[C@@H](NC(=O)OC)C(C)C)[nH]4)cc3)cc12)C(C)C` [Example 13] was run?
A: 30.1 nM
